{"source": "patent US8658791B2", "about": "“2-substituted-6-amino-5-alkyl, alkenyl or alkynyl-4-pyrimidinecarboxylic acids and 6-substituted-4-amino-3-alkyl, alkenyl or alkynyl picolinic acids and their use as herbicides” (Dow AgroSciences, LLC, priority 2007, dated 2014)", "key": {"[1]": {"tested_on": "barnyardgrass (Echinochloa crus-galli)", "experiment": "General preemergence herbicidal activity, ECHCG", "assay_type": "in vivo", "details": "140 g ai/ha, applied to soil surface, visual score after 20-22 days, 0 = no injury, 100 = complete kill or no emergence, read-out: Pre-emergent Weed Control ECHCG", "from_the_text": "(§1) Seeds of the desired test plant species were planted in a soil matrix prepared by mixing a loam soil (43 percent silt, 19 percent clay, and 38 percent sand, with a pH of about 8.1 and an organic matter content of about 1.5 percent) and sand in a 70 to 30 ratio. The soil matrix was contained in plastic pots with a surface area of 127 square centimeters. When required to ensure good germination and healthy plants, a fungicide treatment and/or other chemical or physical treatment was applied. A weighed amount, determined by the highest rate to be tested, of each test compound was placed in a 25 mL glass vial and was dissolved in 6 mL of a 97:3 v/v (volume/volume) mixture of acetone and DMSO to obtain concentrated stock solutions. […] The stock solutions obtained were diluted with 18 mL of a 0.1% v/v aqueous solution of Tween® 20 surfactant to obtain spray solutions containing the highest application rate. Additional application rates were obtained by serial dilution of 12 mL of the high rate solution into a solution containing 3 mL of 97:3 v/v mixture of acetone and DMSO and 9 mL of the 0.1% v/v aqueous solution of Tween® 20 surfactant to obtain 1/2X, 1/4X, 1/8X and 1/16X rates of the high rate. Compound requirements are based upon a 12 mL application volume at a rate of 187 L/ha. Formulated compounds were applied to the soil surface with an overhead Mandel track sprayer equipped with a […] nozzles calibrated to deliver 187 L/ha over an application area of 0.503 square meters at a spray height of 18 inches (43 cm) above the soil surface. Control pots were sprayed in the same manner with the solvent blank. The treated pots and control pots were placed in a greenhouse maintained with an approximate 15 hour photoperiod and temperatures of about 23-29° C. during the day and 22-28° C. during the night. Nutrients and water were added on a regular basis and supplemental lighting was provided with overhead metal halide 1000-Watt lamps as necessary. The water was added by top-irrigation. After 20-22 days, the condition of the test plants that germinated and grew as compared with that of the untreated plants that emerged and grew was determined visually and scored on a scale of 0 to 100 percent where 0 corresponds to no injury and 100 corresponds to complete kill or no emergence."}, "[2]": {"tested_on": "velvetleaf (Abutilon theophrasti)", "experiment": "General preemergence herbicidal activity, ABUTH", "assay_type": "in vivo", "details": "140 g ai/ha, applied to soil surface, visual score after 20-22 days, 0 = no injury, 100 = complete kill or no emergence, read-out: Pre-emergent Weed Control ABUTH", "from_the_text": "as §1"}, "[3]": {"tested_on": "lambsquarter (Chenopodium album)", "experiment": "General postemergence herbicidal activity, CHEAL", "assay_type": "in vivo", "details": "Chenopodium album, post-emergence, 336 h; 140 g ai/ha, postemergence spray, visual score after 14 days, 0 = no injury, 100 = complete kill; read-out: Post-emergent Weed Control CHEAL", "procedure,_shortened": "(§2)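 Greenhouse-grown plants at the first or second true leaf stage are sprayed at 187 L/ha and kept 14 days, watered from below to prevent wash-off. Percent injury (0–100) is judged by eye against untreated plants.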"}, "[4]": {"tested_on": "lambsquarter (Chenopodium album)", "experiment": "General preemergence herbicidal activity, CHEAL", "assay_type": "in vivo", "details": "140 g ai/ha, applied to soil surface, visual score after 20-22 days, 0 = no injury, 100 = complete kill or no emergence, read-out: Pre-emergent Weed Control CHEAL", "from_the_text": "as §1"}, "[5]": {"tested_on": "velvetleaf (Abutilon theophrasti)", "experiment": "General postemergence herbicidal activity, ABUTH", "assay_type": "in vivo", "details": "Abutilon theophrasti, post-emergence, 336 h, 140 g ai/ha, postemergence spray, visual score after 14 days, 0 = no injury, 100 = complete kill; read-out: Post-emergent Weed Control ABUTH", "procedure,_shortened": "as §2"}, "rice (Oryza sativa) [6]": {"tested_on": "rice (Oryza sativa)", "experiment": "General preemergence herbicidal activity, ORYSA", "assay_type": "in vivo", "details": "140 g ai/ha, applied to soil surface, visual score after 20-22 days, 0 = no injury, 100 = complete kill or no emergence, read-out: Pre-emergent Weed Control ORYSA", "from_the_text": "as §1"}, "[7]": {"tested_on": "wild poinsettia (Euphorbia heterophylla)", "experiment": "General preemergence herbicidal activity, EPHHL", "assay_type": "in vivo", "details": "140 g ai/ha, applied to soil surface, visual score after 20-22 days, 0 = no injury, 100 = complete kill or no emergence, read-out: Pre-emergent Weed Control EPHHL", "from_the_text": "as §1"}, "[8]": {"tested_on": "wild poinsettia (Euphorbia heterophylla)", "experiment": "General postemergence herbicidal activity, EPHHL", "assay_type": "in vivo", "details": "Euphorbia heterophylla, post-emergence, 336 h; 140 g ai/ha, postemergence spray, visual score after 14 days, 0 = no injury, 100 = complete kill; read-out: Post-emergent Weed Control EPHHL", "procedure,_shortened": "as §2"}, "[9]": {"tested_on": "barnyardgrass (Echinochloa crus-galli)", "experiment": "General postemergence herbicidal activity, ECHCG", "assay_type": "in vivo", "details": "Echinochloa crus-galli, post-emergence, 336 h, 140 g ai/ha, postemergence spray, visual score after 14 days, 0 = no injury, 100 = complete kill; read-out: Post-emergent Weed Control ECHCG", "procedure,_shortened": "as §2"}, "rice (Oryza sativa) [10]": {"tested_on": "rice (Oryza sativa)", "experiment": "General postemergence herbicidal activity, ORYSA", "assay_type": "in vivo", "details": "Oryza sativa, post-emergence, 336 h, 140 g ai/ha, postemergence spray, visual score after 14 days, 0 = no injury, 100 = complete kill; read-out: Post-emergent Weed Control ORYSA", "procedure,_shortened": "as §2"}}}
{"compound": "COc1c(Cl)ccc(-c2nc(N)c(C)c(C(=O)O)n2)c1F", "note": "[Compound 53, 6-amino-2-(4-chloro-2-fluoro-3-methoxyphenyl)-5-methylpyrimidine-4-carboxylic acid]", "values": [{"measurement": "pest or weed control at 140 g/ha", "setting": "[1]", "result": 80, "unit": "%"}, {"measurement": "pest or weed control at 140 g/ha", "setting": "[2]", "result": 100, "unit": "%"}, {"measurement": "pest or weed control at 140 g/ha", "setting": "[3]", "result": 100, "unit": "%"}, {"measurement": "melting point", "result": "201 to 203", "unit": "°C"}, {"measurement": "pest or weed control at 140 g/ha", "setting": "[4]", "result": 100, "unit": "%"}, {"measurement": "pest or weed control at 140 g/ha", "setting": "[5]", "result": 90, "unit": "%"}, {"measurement": "plant injury at 140 g/ha", "setting": "rice (Oryza sativa) [6]", "result": 0, "unit": "%"}, {"measurement": "pest or weed control at 140 g/ha", "setting": "[7]", "result": 100, "unit": "%"}, {"measurement": "pest or weed control at 140 g/ha", "setting": "[8]", "result": 100, "unit": "%"}, {"measurement": "pest or weed control at 140 g/ha", "setting": "[9]", "result": 90, "unit": "%"}, {"measurement": "plant injury at 140 g/ha", "setting": "rice (Oryza sativa) [10]", "result": 0, "unit": "%"}]}
